The values below come from ChEMBL document CHEMBL1201862, “PubChem BioAssay data set” (2004).

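1) Cells in 96-well plates. 2) Compound, 48 h, 5 concentrations. 3) Linear interpolation between surrounding doses. 4) Unreached endpoint = highest concentration. The concentration for 50% growth inhibition is given as GI50.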 Active and inactive are the calls of the source. Cut-off read from the data, not from the text of the source: active = GI50 up to about 1.1 µM and inactive = higher. Bounds are passed on as bounds.

Test in all cases: inhibition of tumour cell growth, NCI panel, 48 h
The subject of assay [1] is MDA-MB-231.
Assay [2] has as its system SF-268.
For assay [3], the system named is SF-539.
The subject of assay [4] is PC-3.
For assay [5], the system named is NCI-H460.
The test system of assay [6] is SNB-19.
The subject of assay [7] is OVCAR-3.
Assay [8] has as its system UO-31.
Assay [9] has as its system EKVX.
Assay [10] relates to MDA-MB-435.
The test system of assay [11] is NCI/ADR-RES.
The subject of assay [12] is IGROV-1.
Assay [13] relates to SNB-75.
Assay [14] concerns HCC 2998.
Assay [15] deals with M14.
Assay [16] has as its system OVCAR-4.
The subject of assay [17] is OVCAR-5.
In assay [18] the test system is 786-0.
In assay [19] the test system is HOP-62.
In assay [20] the test system is RPMI-8226.

Take `O=C(/C=C/c1cccs1)c1ccc(C(=O)/C=C/c2cccs2)cc1`: the GI50 in assay [1], in assay [2], in assay [3], in [4], in assay [5] and in [6] was > 100 µM (inactive) each time. Further, the GI50 in assay [7], in assay [8], in [9], in assay [10], in [11] and in assay [12] was > 100 µM (inactive) each time. For the same compound, the GI50 in assay [13], in [14], in assay [15], in assay [16], in assay [17] and in assay [18] was > 100 µM (inactive) each time. For the same compound, the GI50 in assay [19] is > 100 µM (inactive).

As for `COc1ccc(C2=NN(C(=O)c3cccnc3)C(O)(c3cc(F)c(Cl)cc3Cl)C2)cc1OC` (stereo not given), the GI50 in assay [1] is 13.9 µM (inactive); in [2], 17.3 µM (inactive); in [3], 16.1 µM (inactive); in [4], 12.6 µM (inactive); in assay [5] it was 15.2 µM (inactive); in assay [20] it was 13.4 µM (inactive). Further, the GI50 in [6] is 29.9 µM (inactive); in [7], 11.5 µM (inactive); in assay [8], 17.5 µM (inactive); in assay [9], 19.6 µM (inactive); in assay [10], 15.2 µM (inactive); in [11], 14.8 µM (inactive). The GI50 in assay [12] is 8.11 µM (inactive); in assay [13] it was 23.5 µM (inactive); in [15], 15.8 µM (inactive); in assay [16] it was 15.6 µM (inactive); in assay [17], 30.2 µM (inactive); in [18] it was 22 µM (inactive). Also, the GI50 in assay [19] is 19 µM (inactive).

For the compound `CCN1CCCCCCCCCC(=N/O)/C(=N\O)C1`, the GI50 in assay [1], in assay [2], in assay [3], in assay [4], in assay [5] and in assay [6] was > 100 µM (inactive) each time. The GI50 in [7], in [8], in assay [9], in [10], in assay [11] and in assay [12] was > 100 µM (inactive) in each case. Moreover, the GI50 in assay [13], in assay [15], in assay [17], in assay [18] and in assay [19] was > 100 µM (inactive) each time.

Take `COCCOCCOCCOc1ccc(C(C#N)N(CCc2ccccc2)C(=O)c2cc(C(=O)N(CCc3ccccc3)C(C#N)c3ccc(OCCOCCOCCOC)cc3)cc(C(=O)N(CCc3ccccc3)C(C#N)c3ccc(OCCOCCOCCOC)cc3)c2)cc1` (stereo not given): the GI50 in [1], in assay [2], in assay [3], in assay [4], in assay [5] and in assay [6] was > 100 µM (inactive) in each case. For the same compound, the GI50 in [7], in [8], in assay [9], in assay [10], in assay [11] and in assay [12] was > 100 µM (inactive) each time. Besides, the GI50 in [13], in assay [14], in assay [15], in assay [16], in [17] and in [18] was > 100 µM (inactive) throughout. Also, the GI50 in [19] was > 100 µM (inactive).

With `C=C(CC[C@@H](C)[C@H]1CC[C@@]2(C)C3=C(CC[C@]12C)[C@@]1(C)CC[C@H](O)[C@@H](C)C1CC3)C(C)C` (stereo not given in full), the GI50 is 1.5 µM (inactive) in [1]; 1.47 µM (inactive) in [3]; 1.07 µM (active) in assay [4]; 0.679 µM (active) in assay [5]; 2.17 µM (inactive) in [6]; 1.77 µM (inactive) in [7]. In addition, the GI50 in [8] was 1.23 µM (inactive); in assay [9], 1.23 µM (inactive); in assay [10], 1.32 µM (inactive); in [11] it was 1.4 µM (inactive); in [12], 2.35 µM (inactive); in assay [13], 1.25 µM (inactive). The GI50 in assay [14] was 1.53 µM (inactive); in assay [15], 1.17 µM (inactive); in assay [16], 1.6 µM (inactive); in [17], 1.42 µM (inactive); in assay [18], 0.984 µM (active); in assay [19], 0.879 µM (active).

For `CC(=O)C1C(=O)C(=O)N(c2ccc(Cl)c(Cl)c2)C1=O` (stereo not given), the GI50 in assay [1], in [3], in [4], in assay [5], in assay [6] and in assay [7] was > 100 µM (inactive) each time. Further, the GI50 in assay [8] is 99.3 µM (inactive); in [9], > 100 µM (inactive); in assay [10], > 100 µM (inactive); in assay [11], > 100 µM (inactive); in assay [12] it was > 100 µM (inactive); in assay [13] it was > 100 µM (inactive). Besides, the GI50 in assay [14], in [15], in assay [17], in assay [18] and in [19] was > 100 µM (inactive) throughout.

`CCCCCC(=O)OCC1(CO)C/C(=C\CC(C(C)C)C(C)C)C(=O)O1` (stereo not given): the GI50 in assay [1] was > 100 µM (inactive); in [2], > 100 µM (inactive); in [4], > 100 µM (inactive); in [5], 42.3 µM (inactive); in [6] it was > 100 µM (inactive); in [7], > 100 µM (inactive). The GI50 in [8] is > 100 µM (inactive); in [9], > 100 µM (inactive); in assay [10], > 100 µM (inactive); in assay [11], 87.5 µM (inactive); in assay [12], 65.8 µM (inactive); in [13] it was 44.4 µM (inactive). The GI50 is > 100 µM (inactive) in assay [14]; > 100 µM (inactive) in assay [15]; > 100 µM (inactive) in assay [16]; > 100 µM (inactive) in assay [17]; 31.9 µM (inactive) in assay [18]; 39 µM (inactive) in assay [19].

Take `CCN(CC)Cc1sc2nc3ccccc3n2c1-c1ccc(OC)cc1`: the GI50 in [1] was 60.4 µM (inactive); in [2], 24.3 µM (inactive); in assay [4] it was 17.4 µM (inactive); in assay [20], 10.5 µM (inactive); in assay [6], 27.1 µM (inactive); in assay [7] it was 21.3 µM (inactive). The GI50 in assay [8] is 5.28 µM (inactive); in assay [9] it was 27.6 µM (inactive); in assay [10] it was 3.05 µM (inactive); in assay [11], 15 µM (inactive); in assay [12] it was 25.5 µM (inactive); in assay [13], 33.8 µM (inactive). Further, the GI50 in [14] was 45.6 µM (inactive); in assay [15] it was 25.6 µM (inactive); in assay [16], 53.2 µM (inactive); in [17], 76 µM (inactive); in assay [18], 35.2 µM (inactive); in assay [19] it was 65.5 µM (inactive).

Consider `c1ccc2c(CSCc3cccc4ccccc34)cccc2c1`, for which the GI50 is > 100 µM (inactive) in assay [1]; > 100 µM (inactive) in assay [2]; 43.4 µM (inactive) in assay [4]; 43.4 µM (inactive) in [5]; > 100 µM (inactive) in [6]; > 100 µM (inactive) in assay [7]. In addition, the GI50 is > 100 µM (inactive) in [8]; 46.8 µM (inactive) in [9]; > 100 µM (inactive) in [10]; > 100 µM (inactive) in [11]; 38.5 µM (inactive) in assay [12]; > 100 µM (inactive) in assay [13]. Besides, the GI50 in assay [14] was 50.8 µM (inactive); in assay [15] it was > 100 µM (inactive); in [16], > 100 µM (inactive); in [17], > 100 µM (inactive); in assay [18] it was > 100 µM (inactive); in [19] it was > 100 µM (inactive).

Take `CO[C@@]12C[C@@H](C)C3=CCC(C)=C3CC1=C(C)C(=O)O2`: the GI50 in assay [1] was > 100 µM (inactive); in [2], > 100 µM (inactive); in [4], 85.7 µM (inactive); in [5] it was > 100 µM (inactive); in assay [20] it was 57.8 µM (inactive); in assay [6], > 100 µM (inactive). For the same compound, the GI50 in assay [7], in assay [8], in [9], in assay [10], in assay [11] and in assay [12] was > 100 µM (inactive) in each case. For the same compound, the GI50 in [13] is 63.4 µM (inactive); in assay [14], > 100 µM (inactive); in [15], > 100 µM (inactive); in [16], > 100 µM (inactive); in assay [17], > 100 µM (inactive); in [18], > 100 µM (inactive).

For `CC(=O)Oc1ccccc1/C=C/C(=O)/C=C/c1ccccc1OC(C)=O`, the GI50 in assay [1] was 2.66 µM (inactive); in assay [2] it was 1.71 µM (inactive); in assay [3], 1.74 µM (inactive); in [4], 1.65 µM (inactive); in assay [5], 2.05 µM (inactive); in assay [20], 0.308 µM (active). In addition, the GI50 in assay [6] is 2.39 µM (inactive); in assay [7], 1.66 µM (inactive); in [8], 1.68 µM (inactive); in assay [9], 1.79 µM (inactive); in assay [10] it was 2.15 µM (inactive); in [11], 3.33 µM (inactive). Besides, the GI50 in assay [12] is 2 µM (inactive); in assay [14], 1.88 µM (inactive); in assay [15], 1.95 µM (inactive); in assay [16], 2.38 µM (inactive); in [17], 2.21 µM (inactive); in assay [18], 1.79 µM (inactive). Further, the GI50 in [19] was 2.44 µM (inactive).
